Test results as given in article PMC11939470, “The Cyclic Antimicrobial Peptide C-LR18 Has Enhanced Antibacterial Activity, Improved Stability, and a Longer Half-Life Compared to the Original Peptide” (Antibiotics, 2025).
Where a SMILES comes first, the peptide text is derived from it. Bridges are numbered along the chain shown (N, C = ends).

Experiments:
E. coli ATCC25922 [1] = test: Stability in artificial gastric and intestinal fluid, read out by MIC assay; assay type: in vitro ADME
Experimental: (§1) The MIC test was performed using the method recommended by the National Committee for Clinical Laboratory Standards (NCCLS) Standards and Guidelines, and the method was modified according to the characteristics of antimicrobial peptides. The bacteria were cultured at 37 °C for 16 h, and the microbial suspension was diluted to a final concentration of 5 × 10^5 CFU/mL. Then, 50 µL of bacterial solution was mixed with 50 µL of MHB containing different concentrations peptides (0.5–256 µM) in a 96-well plate. […] The assays were performed three times. Geometric mean MIC represents the average MIC of the peptide against all the tested strains.
(§2) The stability of LR18 and C-LR18 in protease, serum, and gastrointestinal conditions was determined using MIC assay, as described previously.
The stability in gastrointestinal conditions was also determined. The peptides were diluted in artificial gastric fluid and artificial intestinal fluid, digested in water bath at 37 °C for 0.5 and 1 h, and then inactivated in water bath at 60 °C for 30 min. Then, the PH of the solution was adjusted to 7.0 with 10% Na2CO3. Subsequent steps were the same as for the MIC assay. The assays were performed three times.

Gram-negative bacteria = test: Geometric mean MIC (MBC) and therapeutic index; assay type: cell-based; conditions: average MIC against the tested Gram-negative strains
Experimental: as §1
MBC detection was performed according to the method of Taiyari et al.. According to the MIC results, 50 µL of bacterial cultures was absorbed from the minimum inhibitory concentration hole and the three previous holes, respectively; transferred to a new MH solid medium; and incubated in an incubator at 37 °C overnight, and the bacteria on the plate were counted. The concentration of antibacterial peptide that kills 99.99% of the tested bacteria is defined as the minimum bactericidal concentration (MBC) of the peptide. The experiment was repeated three times. Geometric mean MBC represents the average […] of the peptide against all the tested strains.

E. coli ATCC25922 [2] = test: Impact of temperature and pH on MIC; assay type: physicochemical; conditions: after 100 °C for 30 min, acid treatment (pH4) 1 h, alkali treatment (pH10) 1 h
Experimental: as §1
The impact of temperature on peptides’ antimicrobial activity was also tested.

E. coli ATCC25922 [3] = test: Bactericidal kinetics assay; assay type: cell-based; conditions: 1 × MIC and 2 × MIC, 1 × 10^6 CFU/mL, 37 °C, dose-dependent, Figure 1f
Experimental: Bactericidal kinetics assay was performed according to the method outlined by Zhang et al.. […] The mixed solutions were incubated in a shaker at 37 °C. A total of 100 μL of the above mixed solution was absorbed every 20 min and diluted with sterile MH liquid medium, and then 50 μL of bacterial solution was aspirated and evenly coated on the solid MH plate. After incubation at 37 °C for 16–18 h, the bacteria colonies on the plate were counted. The bactericidal kinetics curves of LR18 and C-LR18 against E. coli ATCC25922 were plotted. The experiment was repeated three times.

KM mice = test: Acute toxicity (LD50) in mice, tail vein; assay type: in vivo; conditions: for Number of Animal Deaths (r) / Survival Rate (q): 10 mice
Experimental: The health status of mice was observed, and the mortality data of 5 groups of mice were recorded. The LD50 and 95% confidence limit of C-LR18 for mice were calculated according to the following formula:LD50 = log − 1[Xm − i(ΣP − 0.5)](3) (4) SX50=i∑pq/n 95% Confidence limits of LD50 = log − 1(log − 1LD50 ± 1.96SX50)(5)
Xm: dose pair value of maximum dose group, i: the difference between the dose pairs of two adjacent groups, P: animal mortality in each group, ΣP: the sum of the mortality of each group of animals, n: number of animals per group, q: survival rate per dose group, […].

E. coli ATCC25922 [4] = test: Stability in protease, read out by MIC assay; assay type: in vitro ADME; conditions: 1 mg/mL papain for 1 h
Experimental: as §1, §2
To detect the stability of peptides in protease, the peptides were diluted in 1 mg/mL of trypsin, pepsin, papain, and protease K, respectively, and incubated at 37 °C for 1 h. Then, the protease in the peptide solutions was inactivated in a water bath at 60 °C for 30 min. Subsequent steps were the same as for the MIC assay. The assays were performed three times.

E. coli Y1 [5] = test: Bacterial colony number in mouse abdominal cavity; assay type: in vivo; conditions: 24 h after treatment, three mice, control group 1 × 10^9 CFU/mL
Experimental: One hour after the mice were intraperitoneally injected with 0.5 mL of E. coli Y1 suspension (10^9 CFU/mL), different doses of C-LR18 (2.5 mg/kg, 5 mg/kg, and 7.5 mg/kg) were injected into the mice through the tail vein, respectively. After 24 h, 2 mL sterile saline was injected into the abdominal cavity of the mice, and the mice were killed via cervical dislocation. The peritoneal cavity of mice was opened, the peritoneal fluid was absorbed, and the peritoneal fluid was diluted with sterilized MH medium in a double ratio. After coating the plate, the peritoneal fluid was cultured at 37 °C for 16–20 h, and the colony count was performed. Three mice were taken from each group.

rabbit red blood cells = test: Hemolysis activity determination; assay type: cell-based; conditions: 2% rabbit red blood cells in PBS pH 7.4, 37 °C 1 h, OD 570 nm, repeated three times
Experimental: Briefly, the collected rabbit red blood cells [purchased from Oumarsi (Shanghai, China) Biotechnology Co., Ltd.] were washed three times with PBS (pH 7.4) and diluted to 2% (v/v). A total of 100 µL of rabbit red blood cells suspension were mixed with 100 µL of PBS (pH 7.4) containing different concentrations of peptides (1–256 µM) in a 96-well plate. The positive control was a mixture of 100 µL of red blood cell suspension and 100 µL of 0.2% TritonX-100 solution, and the negative control was a mixture of 100 µL of red blood cell suspension and 100 µL of PBS solution. The mixtures were incubated at 37 °C for 1 h, then centrifuged at 1000× g for 10 min. The OD value at 570 nm of the supernatant was measured using a microplate reader (TECAN GENios F129004, Tecan, Salzburg, Austria). The hemolytic index was calculated according to the following formula:Hemolytic index % = (OD peptide − ODPBS)/(ODT ritonX-100 − ODPBS) × 100%(2)
The concentration of the antimicrobial peptide causing 10% erythrocyte hemolysis was defined as the minimum hemolytic concentration of the antimicrobial peptide on rabbit red blood cells. The experiment was repeated three times.

E. coli Y1 [6] = test: Bacterial load in liver and spleen of mice; assay type: in vivo; conditions: 7.5 mg/kg tail vein 1 h after ip E. coli Y1, one mouse every 24 h
Experimental: One hour after the mice were intraperitoneally injected with 0.5 mL of E. coli Y1 suspension (10^9 CFU/mL), C-LR18 was injected into the mice at a dose of 7.5 mg/kg through the tail vein. The normal saline group was used as negative control, and the polymyxin B group (1 mg/kg) was used as positive control. After that, one mouse was taken every 24 h, sacrificed via cervical dislocation, and the liver and spleen were removed, weighed, and added to PBS buffer for grinding at 3000 r/min for 2 min. The abrasive solution was diluted with sterile PBS (1:10,000), and 0.1 mL diluent was evenly coated in solid MH medium and cultured at 37 °C overnight. Colony counting was performed on the samples, and the bacterial colonization amount in liver and spleen was calculated.

CC(C)C[C@@H]1NC(=O)[C@H](CCCNC(=N)N)NC(=O)[C@H](CCCNC(=N)N)NC(=O)[C@H](CC(C)C)NC(=O)[C@H](CC(C)C)NC(=O)[C@H](CCCNC(=N)N)NC(=O)[C@H](CC(C)C)NC(=O)[C@@H]2CCCN2C(=O)[C@H](CCCNC(=N)N)NC(=O)[C@H](CCCNC(=N)N)NC(=O)[C@@H]2CCCN2C(=O)[C@H](CC(C)C)NC(=O)[C@H](CCCNC(=N)N)NC(=O)[C@H](CC(C)C)NC(=O)[C@H](CC(C)C)NC(=O)[C@H](CCCNC(=N)N)NC(=O)[C@H](CCCNC(=N)N)NC(=O)[C@H](CC(C)C)NC(=O)[C@@H](N)CSSC[C@@H](C(=O)O)NC1=O [C-LR18] (H-CLRRLLRLPRRPLRLLRRLC-OH; disulfide 1-20; N-terminus and C-terminus assumed)
increase of MIC (E. coli ATCC25922 [1]; artificial gastric fluid 30 min): 8 times
increase of MIC (E. coli ATCC25922 [1]; artificial intestinal fluid 30 min): 4 times
increase of MIC (E. coli ATCC25922 [1]; artificial intestinal fluid 60 min): 16 times
Geometric mean MIC (Gram-negative bacteria): 2 µM
expansion of MIC (E. coli ATCC25922 [2]): 2 times
time to complete killing of E. coli ATCC25922 (E. coli ATCC25922 [3]): ≤ 100 min
Number of Animal Deaths (r) (KM mice; 36 mg/kg tail vein): 0
Survival Rate (q) (KM mice; 36 mg/kg tail vein): 1
Number of Animal Deaths (r) (KM mice; 44 mg/kg tail vein): 2
Survival Rate (q) (KM mice; 44 mg/kg tail vein): 0.8
Number of Animal Deaths (r) (KM mice; 53 mg/kg tail vein): 5
Survival Rate (q) (KM mice; 53 mg/kg tail vein): 0.5
Number of Animal Deaths (r) (KM mice; 64 mg/kg tail vein): 7
Survival Rate (q) (KM mice; 64 mg/kg tail vein): 0.3
Number of Animal Deaths (r) (KM mice; 77 mg/kg tail vein): 10
Survival Rate (q) (KM mice; 77 mg/kg tail vein): 0
95% confidence limit of LD50 (KM mice; Kunming mice, tail vein): 28.0 to 50.1 mg/kg
change of antibacterial activity after papain (E. coli ATCC25922 [4]): remained unchanged
number of colonies in mouse abdominal cavity (E. coli Y1 [5]; 2.5 mg/kg): 10^7 CFU/mL
number of colonies in mouse abdominal cavity (E. coli Y1 [5]; 5.0 mg/kg): 10^6 CFU/mL
number of colonies in mouse abdominal cavity (E. coli Y1 [5]; 7.5 mg/kg): 10^4 CFU/mL
MHC10 (lowest concentration inducing 10% hemolysis) (rabbit red blood cells): 128 µM
bacterial colonization in liver and spleen (E. coli Y1 [6]): significantly less than that in the negative control group
